According to US4293483A, “Derivatives of A-30912A nucleus” (priority 1980, dated 1981):
Several values for one entry are separate records, joined by “and”; a condition that tells them apart may be missing. Equal entries are not always repeated. Where two headings read alike, the source gives them in different places. Numbered stars: 1 amine (or outer) side, 2 acyl side, 3 side chain; on linkers, the order of the positions; unused ones are H or OH. Bridge positions count the residues as written; N and C are the ends. Square brackets hold non-standard residues; d marks the D form. Peptide text beside a SMILES is read from it. * marks the point of attachment. ξ: configuration not given here. Orn(4R-OH,5R-OH) = O=C([C@H](C[C@@H](O)[C@@H](O)N[*:3])N[*:1])[*:2]; hTyr(3S-OH,4S-OH) = N[C@H](C(=O)O)[C@H](O)[C@@H](O)c1ccc(O)cc1; Pro(3S-OH,4S-Me) = C[C@H]1CN[C@H](C(=O)O)[C@H]1O; X1 = O=C(c1cc(I)c(N[*:1])c(I)c1)[*:2]; X5 = O=C(c1cc(Cl)cc(N[*:1])c1Cl)[*:2]; Palmitoyl = CCCCCCCCCCCCCCCC(=O)*; Hyp = O=C(O)[C@@H]1C[C@@H](O)CN1; Myristoyl = CCCCCCCCCCCCCC(=O)*; X3 = O=C(c1cccnc1N[*:1])[*:2]; Lauroyl = CCCCCCCCCCCC(=O)*; 4Abz = Nc1ccc(C(=O)O)cc1; ξF = NC(Cc1ccccc1)C(=O)O

How the values were obtained:
[1] = tested on: Saccharomyces pastorianus X-52; experiment: Agar plate disc diffusion test, zone of inhibition; type: cell-based; settings: Saccharomyces pastorianus, X52, 48 h, 1 mg/ml suspension in methanol, 7 mm disc, 24-48 hours at 25-37° C.
Description: (§1) ^(a) Compounds were tested as suspension in methanol.
(§2) were tested at a concentration of 1 mg/ml by a dipping 7mm disc into the
(§3) suspension and placing it on the agar surface. Incubation: 24-48 hours at

Candida albicans A-26 [2] = experiment: Agar plate disc diffusion test, zone of inhibition; type: cell-based; settings: 1 mg/ml suspension in methanol, 7 mm disc, 24-48 hours at 25-37° C., no regrowth mark
Description: as §1, §2, §3

Candida albicans A-26 [3] = experiment: Agar plate disc diffusion test, MIC per disc; type: cell-based; settings: 0.01M sodium borate, pH 7.5, 24 hours at 30° C.
Description: (§4) In Table 5, activity is measured by the minimal inhibitory concentration (MIC) of the substance (μg/disc) required to inhibit growth of the test organism.
(§5) *Compounds were suspended in 0.01M sodium borate solution, pH 7.5.
(§6) compounds were tested at 20 μg/disc at top level and at twofold
(§7) dilutions until end points were reached.

[4] = tested on: Trychophyton mentagrophytes #6; experiment: Agar plate disc diffusion test, MIC per disc; type: cell-based; settings: 0.01M sodium borate, pH 7.5, 24 hours at 30° C.
Description: as §4, §5, §6, §7

Candida albicans A-26 [5] = experiment: Therapeutic activity against Candida albicans A-26 infection in mice; type: in vivo; settings: A26, sc
Description: The results of in vivo tests to evaluate the effectiveness of the compound of Examples 61-81, 86 and 88 against an infection caused by Candida albicans A-26 in mice are given in Table 7, where activity is measured by the ED50 value (the dose in mg/kg. required to cure 50% of the test animals). Where an ED50 value was not obtained, activity is indicated by the lowest dose at which a significant anti-fungal effect is observed. In this test, groups of male albino mice (specific pathogen free), weighing 18 to 20 grams, are infected intravenously with Candida albicans A-26. The animals are X-irradiated 24 hours prior to infection at about 50 roentgens per minute for 8 minutes (400 total dose) to reduce immune responses to the infecting organism. At 0, 4, and 24 hours post infection each group of mice is given graded doses subcutaneously of the test compound as a suspension in 33% polyethylene glycol-water. The day of death for each animal is recorded.
*Dosage Schedule: 40, 20, 15, and 10 mg/kg. Dosages given 0, 4, and 24
hours post injection as suspension of test compound in 30% PEGH2 O.
Number of mice receiving test compounds at each dosage level: 6 mice per
group. Number of mice in control (untreated) group: 10 mice per group.
**As measured by increase in survival time of treated animals versus
control, calculated by method of Reed V. Mueuch, American J. Hygiene, 493

[6] = Blood levels after oral administration in mice; settings: for concentration at 4 h: mouse, po, 416 mg/kg
Description: (§8) In this test, mice are gavaged with a dose of 416 mg/kg of the test compound suspended in 33% PEG 400-water. At time intervals, blood samples are taken from the orbital sinus and are assayed for antibiotic activity as follows: A 7 mm. disc containing 20 μl of whole blood is placed on agar seeded with Aspergillus montevidensis A35137. After 40 hours incubation at 30° C. zones of inhibition from the blood samples are compared to a standard obtained from the test compound, and the amount of compound in the blood sample is calculated.

Neurospora Crassa 846 = experiment: Agar plate disc diffusion test, zone of inhibition; type: cell-based; settings: Neurospora crassa, 1 mg/ml, 7 mm disc, * measurable zone of inhibition with regrowth of organism around disc
Description: as §1, §2, §3

[7] = tested on: Trichophyton mentagrophytes; experiment: Agar plate disc diffusion test, zone of inhibition; type: cell-based; settings: 7 mm disc
Description: as §1, §2, §3

[8] = mouse, in vivo, 416 mg/kg, 240 min
Description: as §8

in vivo = settings: mouse, po, 416 mg/kg
Description: as §8

[9] = Saccharomyces pastorianus X-52, read-out: Size of Zone of Inhibition
[10] = read-out: Lowest Active Dose, subcutaneous at 0, 4 and 24 hours post infection, lowest dose with significant anti-fungal effect
[11] = CRASSA846, Neurospora Crassa 846, read-out: Size of Zone of Inhibition (*)
[12] = 1 mg/ml, * measurable zone of inhibition with regrowth of organism around disc, read-out: Size of Zone of Inhibition (*)
[13] = subcutaneous at 0, 4 and 24 hours post infection, dose to cure 50% of test animals, by increase in survival time, read-out: ED50
[14] = subcutaneous at 0, 4 and 24 hours post infection, lowest dose with significant anti-fungal effect, read-out: Lowest Active Dose

Row | SMILES | zone of inhibition at 1000 µg/mL [1, 9] | Size of Zone of Inhibition (Candida albicans A-26 [2]) | MIC (Candida albicans A-26 [3]) | MIC [4] | ED50 (Candida albicans A-26 [5]) | minimal effective dose (Candida albicans A-26 [5]; [10]) | concentration at 4 h ([6]; blood) | zone of inhibition at 1000 µg/mL (Neurospora Crassa 846; [11]) | zone of inhibition at 1000 µg/mL [7, 12] | ED50 (Candida albicans A-26 [5]; [13]) | minimal effective dose (Candida albicans A-26 [5]; [14]) | Blood Levels [8] | zone of inhibition at 1000 µg/mL ([7]; 48 h, 1 mg/ml suspension in methanol, 24-48 hours at 25-37° C., no regrowth mark, read-out: Size of Zone of Inhibition) | concentration at 4 h (in vivo) | zone of inhibition at 1000 µg/mL ([1]; read-out: Size of Zone of Inhibition, Saccharomyces pastorianus X-52) | zone of inhibition at 1000 µg/mL (Neurospora Crassa 846; CRASSA846, read-out: Size of Zone of Inhibition (*), Neurospora Crassa 846) | concentration at 4 h ([6]; in vivo) | Blood Levels ([6]; mice, 416 mg/kg by gavage in 33% PEG 400-water, four hours after administration, bioassay vs. Aspergillus montevidensis A35137)
1 | CCCCCCCCCCCCCCCC(=O)Nc1ccc(C(=O)N[C@H]2C[C@@H](O)[C@@H](O)NC(=O)[C@@H]3[C@@H](O)[C@@H](C)CN3C(=O)[C@H]([C@@H](C)O)NC(=O)[C@H]([C@H](O)[C@@H](O)c3ccc(O)cc3)NC(=O)[C@@H]3C[C@@H](O)CN3C(=O)[C@H]([C@@H](C)O)NC2=O)cc1 [Example 81] ({Palmitoyl-4Abz}-[Orn(4R-OH,5R-OH)]T[Hyp][hTyr(3S-OH,4S-OH)]T[Pro(3S-OH,4S-Me)]; lactam 1-C) | 24 mm | 25 mm | 0.312 μg/disc | < 0.039 μg/disc | 7 mg/kg | 5 mg/kg | 36000 ng/mL | – | – | – | – | – | – | – | – | – | – | –
2 | CCCCCCCCCCCCCC(=O)Nc1ccc(C(=O)N[C@H]2C[C@@H](O)[C@@H](O)NC(=O)[C@@H]3[C@@H](O)[C@@H](C)CN3C(=O)[C@H]([C@@H](C)O)NC(=O)[C@H]([C@H](O)[C@@H](O)c3ccc(O)cc3)NC(=O)[C@@H]3C[C@@H](O)CN3C(=O)[C@H]([C@@H](C)O)NC2=O)cc1 [Example 80] ({Myristoyl-4Abz}-[Orn(4R-OH,5R-OH)]T[Hyp][hTyr(3S-OH,4S-OH)]T[Pro(3S-OH,4S-Me)]; lactam 1-C) | 17 mm | 22 mm | 1.25 μg/disc | < 0.039 μg/disc | 11 mg/kg | 2.5 mg/kg | 6500 ng/mL | – | – | – | – | – | – | – | – | – | – | –
3 | CCCCCCCCCCCC(=O)Nc1ncccc1C(=O)N[C@H]1C[C@@H](O)[C@@H](O)NC(=O)[C@@H]2[C@@H](O)[C@@H](C)CN2C(=O)[C@H]([C@@H](C)O)NC(=O)[C@H]([C@H](O)[C@@H](O)c2ccc(O)cc2)NC(=O)[C@@H]2C[C@@H](O)CN2C(=O)[C@H]([C@@H](C)O)NC1=O [Example 75] (Lauroyl-[X3][Orn(4R-OH,5R-OH)]T[Hyp][hTyr(3S-OH,4S-OH)]T[Pro(3S-OH,4S-Me)]; lactam 2-C) | 14 mm | 24 mm | 2.5 μg/disc | 0.078 μg/disc | – | – | – | 30 mm | 54 mm | > 40 mg/kg | > 40 mg/kg | 0 ng/mL | – | – | – | – | – | –
4 | CCCCCCCCCCCC(=O)NC(Cc1ccccc1)C(=O)N[C@H]1C[C@@H](O)[C@@H](O)NC(=O)[C@@H]2[C@@H](O)[C@@H](C)CN2C(=O)[C@H]([C@@H](C)O)NC(=O)[C@H]([C@H](O)[C@@H](O)c2ccc(O)cc2)NC(=O)[C@@H]2C[C@@H](O)CN2C(=O)[C@H]([C@@H](C)O)NC1=O (stereo partly drawn) [Example 61] (Lauroyl-[ξF][Orn(4R-OH,5R-OH)]T[Hyp][hTyr(3S-OH,4S-OH)]T[Pro(3S-OH,4S-Me)]; lactam 2-C) | 18 mm | 25 mm | 0.625 μg/disc | < 0.039 μg/disc | – | – | – | 42 mm | 55 mm | > 40 mg/kg | > 40 mg/kg | 0 ng/mL | – | – | – | – | – | –
5 | CCCCCCCCCCCC(=O)Nc1cc(Cl)cc(C(=O)N[C@H]2C[C@@H](O)[C@@H](O)NC(=O)[C@@H]3[C@@H](O)[C@@H](C)CN3C(=O)[C@H]([C@@H](C)O)NC(=O)[C@H]([C@H](O)[C@@H](O)c3ccc(O)cc3)NC(=O)[C@@H]3C[C@@H](O)CN3C(=O)[C@H]([C@@H](C)O)NC2=O)c1Cl [Example 67] (Lauroyl-[X5][Orn(4R-OH,5R-OH)]T[Hyp][hTyr(3S-OH,4S-OH)]T[Pro(3S-OH,4S-Me)]; lactam 2-C) | 19 mm | 27 mm | 0.625 μg/disc | < 0.039 μg/disc | 14 mg/kg | 10 mg/kg | 530 ng/mL | 35 mm | 44 mm | – | – | – | – | – | – | – | – | –
6 | CCCCCCCCCCCC(=O)Nc1c(I)cc(C(=O)N[C@H]2C[C@@H](O)[C@@H](O)NC(=O)[C@@H]3[C@@H](O)[C@@H](C)CN3C(=O)[C@H]([C@@H](C)O)NC(=O)[C@H]([C@H](O)[C@@H](O)c3ccc(O)cc3)NC(=O)[C@@H]3C[C@@H](O)CN3C(=O)[C@H]([C@@H](C)O)NC2=O)cc1I [Example 68] (Lauroyl-[X1][Orn(4R-OH,5R-OH)]T[Hyp][hTyr(3S-OH,4S-OH)]T[Pro(3S-OH,4S-Me)]; lactam 2-C) | 17 mm | 25 mm | 1.25 μg/disc | 0.078 μg/disc | – | – | – | 30 mm | – | > 40 mg/kg | 40 mg/kg | – | 60 mm | 340 ng/mL | – | – | – | –
7 | CCCCCCCCCCCC(=O)Nc1ccc(C(=O)NCC(=O)N[C@H]2C[C@@H](O)[C@@H](O)NC(=O)[C@@H]3[C@@H](O)[C@@H](C)CN3C(=O)[C@H]([C@@H](C)O)NC(=O)[C@H]([C@H](O)[C@@H](O)c3ccc(O)cc3)NC(=O)[C@@H]3C[C@@H](O)CN3C(=O)[C@H]([C@@H](C)O)NC2=O)cc1 [Example 74] ({Lauroyl-4Abz}-G[Orn(4R-OH,5R-OH)]T[Hyp][hTyr(3S-OH,4S-OH)]T[Pro(3S-OH,4S-Me)]; lactam 2-C) | – | 15 mm | 10 μg/disc | 0.078 μg/disc | > 40 mg/kg | > 40 mg/kg | – | – | – | – | – | – | – | – | 13 mm | 28 mm | 640 ng/mL | –
8 | CC(=O)Nc1ccc(C(=O)N[C@H]2C[C@@H](O)[C@@H](O)NC(=O)[C@@H]3[C@@H](O)[C@@H](C)CN3C(=O)[C@H]([C@@H](C)O)NC(=O)[C@H]([C@H](O)[C@@H](O)c3ccc(O)cc3)NC(=O)[C@@H]3C[C@@H](O)CN3C(=O)[C@H]([C@@H](C)O)NC2=O)cc1 [Example 77] (Ac-[4Abz][Orn(4R-OH,5R-OH)]T[Hyp][hTyr(3S-OH,4S-OH)]T[Pro(3S-OH,4S-Me)]; lactam 2-C) | 17 mm | 24 mm | > 20 μg/disc and 40 μg/disc | 0.312 μg/disc | > 40 mg/kg | > 40 mg/kg | – | 24 mm | 51 mm | – | – | – | – | – | – | – | – | 0 ng/mL
